Assay results taken from patent US8779004B2, “Stable emulsion formulations” (Amgen, Inc., priority 2006, dated 2014).
Marks after values point to notes of the source that are not given here.

Assays:
[1] = pH and particle size of crude cinacalcet emulsions with different oils and phospholipids; assay type: physicochemical
Method: Table 4 illustrates the effect of different oils and phospholipids on pH and particle size of crude emulsions prepared for cinacalcet. The particle size distribution of the droplets was measured using light diffraction techniques after dilution of the emulsion in water. The particle size is represented by D(4,3) which is the volume corrected mean of the particles (units). As used herein, SBO—soybean oil (long chain triglycerides); MCT—medium chain triglycerides; STG—structured triglycerides (including PEGylated oils)
Coarse prototype emulsion formulations were prepared at a batch size of 10 mLs by an Ultraturrax T25 S1 Janke and Kunkel blade homogenizer equipped with a 10 mm rotostator, followed by sonication from a Vibracell Ultrasonicator with a titanium microtip probe. Batches at a 40 mL size were prepared in a similar manner, with the exception of the ultrasonicator having a ¾″ titanium probe tip.
Coarse prototype emulsions at a batch size of 10-40 mLs were prepared by mixing the oil with lecithin by a blade mixer at 60° C. protected by a nitrogen headspace. Cinacalcet was added and mixed well, followed by the addition of the aqueous phase containing glycerin and buffer until a homogenous mixture was made. A sonicator probe was used to further process the emulsion premix while maintaining the nitrogen headspace. Coarse emulsions prepared by sonication were centrifuged at 3K RPM to remove gross particulates on a Dupont Sorval centrifuge, and dispensed by removal of the top contents of the emulsion for evaluation.

[2] = as above; assay type: physicochemical; design: unit not given here; conditions: emulsion; STG 20%; 1% Purified Soy Lecithin; after a single autoclaving cycle
[3] = crude emulsion, MCT 5%, 1% Purified Egg Lecithin
[4] = crude emulsion, MCT 5%, 1% Purified Soy Lecithin
[5] = crude emulsion, MCT 5%, 2% Purified Egg Lecithin
[6] = crude emulsion, MCT 5%, % Purified Soy Lecithin
[7] = crude emulsion, MCT 10%, 1% Purified Egg Lecithin
[8] = crude emulsion, MCT 10%, 1% Purified Soy Lecithin
[9] = crude emulsion, MCT 10%, 2% Purified Egg Lecithin
[10] = crude emulsion, MCT 10%, % Purified Soy Lecithin
[11] = crude emulsion, MCT 20%, 1% Purified Egg Lecithin
[12] = crude emulsion, MCT 20%, 1% Purified Soy Lecithin
[13] = crude emulsion, MCT 20%, 2% Purified Egg Lecithin
[14] = crude emulsion, MCT 20%, % Purified Soy Lecithin
[15] = crude emulsion, SBO 5%, 1% Purified Egg Lecithin
[16] = crude emulsion, SBO 5%, 1% Purified Soy Lecithin
[17] = crude emulsion, SBO 5%, 2% Purified Egg Lecithin
[18] = crude emulsion, SBO 5%, % Purified Soy Lecithin
[19] = crude emulsion, SBO 10%, 1% Purified Egg Lecithin
[20] = crude emulsion, SBO 10%, 1% Purified Soy Lecithin
[21] = crude emulsion, SBO 10%, 2% Purified Egg Lecithin
[22] = crude emulsion, SBO 10%, % Purified Soy Lecithin
[23] = crude emulsion, SBO 20%, 1% Purified Egg Lecithin
[24] = crude emulsion, SBO 20%, 1% Purified Soy Lecithin
[25] = crude emulsion, SBO 20%, 2% Purified Egg Lecithin
[26] = crude emulsion, SBO 20%, % Purified Soy Lecithin
[27] = crude emulsion, STG 5%, 1% Purified Egg Lecithin
[28] = crude emulsion, STG 5%, 2% Purified Egg Lecithin
[29] = crude emulsion, STG 10%, 1% Purified Egg Lecithin
[30] = crude emulsion, STG 10%, 2% Purified Egg Lecithin
[31] = crude emulsion, STG 20%, 1% Purified Egg Lecithin
[32] = crude emulsion, STG 20%, 2% Purified Egg Lecithin

For `C[C@@H](NCCCc1cccc(C(F)(F)F)c1)c1cccc2ccccc12` [Cinacalcet, N-(1-(R)-(1-naphthyl)ethyl]-3-[3-(trifluoromethyl)phenyl]-1-aminopropane], the D(4, 3) [1, 3] was 0.39 µm, the pH [1, 3] was 8.58 and the D(4, 3) [1, 4] was 0.36 µm. It also gave a pH [1, 4] of 9.12, a D(4, 3) [1, 5] of 0.35 µm and a pH [1, 5] of 8.39. For the same molecule, the D(4, 3) [1, 6] was 0.32 µm, the PH [1, 6] was 8.97 and the D(4, 3) [1, 7] was 0.53 µm. For the same molecule, the pH [1, 7] was 8.61, the D(4, 3) [1, 8] was 0.21 µm and the pH [1, 8] was 9.09. The D(4, 3) [1, 9] was 0.4 µm, the pH [1, 9] was 8.29 and the D(4, 3) [1, 10] was 0.44 µm. For the same molecule, the PH [1, 10] was 8.99, the D(4, 3) [1, 11] was 0.57 µm and the pH [1, 11] was 8.41. The D(4, 3) [1, 12] was 0.47 µm, the pH [1, 12] was 8.81 and the D(4, 3) [1, 13] was 0.42 µm. The pH [1, 13] was 8.23, the D(4, 3) [1, 14] was 0.31 µm and the PH [1, 14] was 8.95. It also gave a D(4, 3) [1, 15] of 1.07 µm, a pH [1, 15] of 8.81 and a D(4, 3) [1, 16] of 1.3 µm. It also gave a pH [1, 16] of 8.94, a D(4, 3) [1, 17] of 0.77 µm and a pH [1, 17] of 8.53. For the same molecule, the D(4, 3) [1, 18] was 0.81 µm, the PH [1, 18] was 8.99 and the D(4, 3) [1, 19] was 0.65 µm. For the same molecule, the pH [1, 19] was 8.80, the D(4, 3) [1, 20] was 0.98 µm and the pH [1, 20] was 8.86. The D(4, 3) [1, 21] was 0.68 µm, the pH [1, 21] was 8.46 and the D(4, 3) [1, 22] was 0.4 µm. For the same molecule, the PH [1, 22] was 8.91, the D(4, 3) [1, 23] was 1.42 µm and the pH [1, 23] was 8.62. It also gave a D(4, 3) [1, 24] of 1.4 µm, a pH [1, 24] of 8.73 and a D(4, 3) [1, 25] of 1.06 µm. It also gave a pH [1, 25] of 8.39, a D(4, 3) [1, 26] of 0.49 µm and a PH [1, 26] of 8.82. It also gave a D(4, 3) [1, 27] of 0.72 µm, a pH [1, 27] of 8.55 and a pH ([1]; crude emulsion, STG 5%, 1% Purified Soy Lecithin) of 9.09. It also gave a D(4, 3) [1, 28] of 0.52 µm, a pH [1, 28] of 8.46 and a PH ([1]; crude emulsion, STG 5%, % Purified Soy Lecithin) of 9.04. It also gave a D(4, 3) [1, 29] of 1.23 µm, a pH [1, 29] of 8.71 and a pH ([1]; crude emulsion, STG 10%, 1% Purified Soy Lecithin) of 9.00. The D(4, 3) [1, 30] was 0.81 µm, the pH [1, 30] was 8.37 and the PH ([1]; crude emulsion, STG 10%, % Purified Soy Lecithin) was 9.01. For the same molecule, the D(4, 3) [1, 31] was 0.84 µm, the pH [1, 31] was 8.52 and the pH ([1]; crude emulsion, STG 20%, 1% Purified Soy Lecithin) was 8.99. For the same molecule, the D(4, 3) [1, 32] was 1.18 µm, the pH [1, 32] was 8.28 and the PH ([1]; crude emulsion, STG 20%, % Purified Soy Lecithin) was 9.07. The “D(4, 3)” value ([1]; emulsion, STG 5%, 1% Purified Soy Lecithin, after a single autoclaving cycle) was 0.40^a, the “D(4, 3)” value ([1]; emulsion, STG 5%, % Purified Soy Lecithin, after a single autoclaving cycle) was 0.34^a and the “D(4, 3)” value ([1]; emulsion, STG 10%, 1% Purified Soy Lecithin, after a single autoclaving cycle) was 0.73^a. For the same molecule, the “D(4, 3)” value ([1]; emulsion, STG 10%, % Purified Soy Lecithin, after a single autoclaving cycle) was 0.41^a, the “D(4, 3)” value ([1]; emulsion, STG 20%, % Purified Soy Lecithin, after a single autoclaving cycle) was 0.46^a and the “D(4, 3)” value [2] was 0.94^a.
